Test results published in EP3294317B1, “ENHANCED ANTIBIOTIC COMPOSITION” (Universitat Autònoma de Barcelona, priority 2015, dated 2016).

Columns and labels:
[1] = tested on: Pseudomonas aeruginosa PAO1; experiment: Colistin broth microdilution MIC with potentiator compounds (Example 1); type: cell-based; conditions: P. aeruginosa PAO1; colistin without potentiator
[2] = tested on: Stenotrophomonas maltophilia ATCC 13637; experiment: as above; type: cell-based; conditions: S. maltophilia ATCC 13637; colistin without potentiator
[3] = tested on: Escherichia coli ATCC 9637; experiment: as above; type: cell-based; conditions: E. coli ATCC 9637; colistin without potentiator
[4] = tested on: Acinetobacter baumannii ATCC 15308; experiment: as above; type: cell-based; conditions: A. baumannii ATCC 15308; colistin without potentiator
[5] = tested on: Salmonella enterica subsp. enterica ATCC 14028; experiment: as above; type: cell-based; conditions: S. enterica ATCC 14028; colistin without potentiator
A. baumannii 6963 = experiment: Colistin broth microdilution MIC with potentiator compounds, resistant clinical isolates (Example 3); type: cell-based, Acinetobacter baumannii; conditions: colistin without potentiator
Method: (§1) The potentiator effect of the compound of the invention and other compounds disclosed herein was tested using colistin sulfate as antibiotic and in combination with the enhancer compounds in front of resistant clinical isolates.
(§2) Tests were performed to determine the potentiator effect of the compound of the invention and other compounds disclosed herein with multidrug-resistant S. maltophilia and A. baumannii clinical strains as shown in Table 5: TABLE 5
(§3) For this experiment the potentiator compound was added to a colistin broth microdilution assay at a final concentration of 0.1mM. MICs were determined as described in the Example 1.
(§4) Colistin minimal inhibitory concentration (MIC), expressed in µg/mL, and the fold increase in bacterial susceptibility to colistin when combined with the potentiator compound (expressed as MIC in the presence of 1.0% DMSO / MIC in the presence of 0.1 mM of each potentiator compound and 1.0% DMSO) are shown in Table 6: […]

A. baumannii 6799 = experiment: as above; type: cell-based, Acinetobacter baumannii; conditions: colistin without potentiator
Method: as §1, §2, §3, §4

[6] = tested on: Pseudomonas aeruginosa ATCC 27853; experiment: Colistin broth microdilution MIC with potentiator compounds (Example 1); type: cell-based; conditions: P. aeruginosa ATCC 27853; colistin without potentiator
[7] = tested on: Enterobacter aerogenes ATCC 13048; experiment: as above; type: cell-based; conditions: E. aerogenes ATCC 13048; colistin without potentiator
S. maltophilia D457 = experiment: Colistin broth microdilution MIC with potentiator compounds, resistant clinical isolates (Example 3); type: cell-based, Stenotrophomonas maltophilia; conditions: colistin without potentiator
Method: as §1, §2, §3, §4

S. maltophilia 257 = experiment: as above; type: cell-based, Stenotrophomonas maltophilia; conditions: colistin without potentiator
Method: as §1, §2, §3, §4

S. maltophilia 53149 = experiment: as above; type: cell-based, Stenotrophomonas maltophilia; conditions: colistin without potentiator
Method: as §1, §2, §3, §4

S. maltophilia M30 = experiment: as above; type: cell-based, Stenotrophomonas maltophilia; conditions: colistin without potentiator
Method: as §1, §2, §3, §4

S. maltophilia 197 = experiment: as above; type: cell-based, Stenotrophomonas maltophilia; conditions: colistin without potentiator
Method: as §1, §2, §3, §4

[8] = tested on: Escherichia coli ATCC 25922; experiment: Colistin broth microdilution MIC with potentiator compounds (Example 1); type: cell-based; conditions: E. coli ATCC 25922; colistin without potentiator
S. maltophilia K279a = experiment: Colistin broth microdilution MIC with compound of formula I prepared in methanol or DMSO (Example 6); type: cell-based, Stenotrophomonas maltophilia; conditions: microdilution test with MHB, colistin without potentiator
Method: (§5) The potentiator effect of the compound of the invention in a new formulation was tested by using colistin sulphate as antibiotic in combination with the enhancer compound of formula I in front of resistant clinical isolates. […]
(§6) Tests were performed to determine the potentiator effect of the compound of the invention with two colistin resistant S. maltophilia strains as shown in Table 9. S. maltophilia K279a is a reference clinical strain. The origin of clinical strain OC323 together with K279a has been described previously (Huedo et al., Two Different rpf Clusters Distributed among a Population of Stenotrophomonas maltophilia Clinical Strains Display Differential Diffusible Signal Factor Production and Virulence Regulation, J. Bacteriol., 2014, 196, 2431-2442).
(§7) Selected compound of formula I was first dissolved in 100% of Methanol (HPLC Gradient Grade CHROMASOLV. Sigma, 34885-1L-R) to 10 mM. The compound was fairly soluble in methanol up to 10 mM and required vigorous vortex.
(§8) […] MICs were determined as described in the Example 1.
(§9) Strains colistin minimal inhibitory concentration (MIC), expressed in µg/mL, and the fold increase in bacterial susceptibility to colistin when combined with the potentiator compound previously dissolved in methanol ([…]) are shown in Table 9: TABLE 9

S. maltophilia OC323 = experiment: as above; type: cell-based, Stenotrophomonas maltophilia; conditions: microdilution test with MHB, colistin without potentiator
Method: as §5, §6, §7, §8, §9

colistin [reference compound]
Colistin MIC [1]: 1 mg/L | Colistin MIC [2]: 8 mg/L | Colistin MIC [3]: 0.5 mg/L | Colistin MIC [4]: 0.5 mg/L | Colistin MIC [5]: 2 mg/L | Colistin MIC (A. baumannii 6963): 0.125 mg/L | Colistin MIC (A. baumannii 6799): 0.125 mg/L | Colistin MIC [6]: 0.5 mg/L | Colistin MIC [7]: 1 mg/L | Colistin MIC (S. maltophilia D457): 32 mg/L | Colistin MIC (S. maltophilia 257): 64 mg/L | Colistin MIC (S. maltophilia 53149): 32 mg/L | Colistin MIC (S. maltophilia M30): 32 mg/L | Colistin MIC (S. maltophilia 197): 32 mg/L | Colistin MIC [8]: 1 mg/L | MIC to colistin (S. maltophilia K279a): S. maltophilia K279a (16 µg/mL) | MIC to colistin (S. maltophilia OC323): S. maltophilia OC323 (32 µg/mL)
